Source: patent publication US20070225279A1, “Therapeutic combinations for the treatment of depression” (Wyeth, priority 2006, published 2007)

Experiments:
Male Swiss Webster mice [1] = assay: Tail suspension test; type: in vivo; settings: for decrease in immobility time: cotreated 30 minutes prior to the test
Source text: Compound 1, [drawing 11] was used to exemplify the effectiveness of compounds of the present invention in the tail suspension test. While not a direct model of depression, the tail suspension test is an assay that can evaluate antidepressant-like effects of drugs. […] Specifically, they decrease the amount of time the mice spend immobile after being hung upside down by their tails during the test. It is impossible to determine if a mouse is indeed depressed. However, the fact that clinically effective antidepressants reduce immobility lends predictive validity to the model. Animals
Male Swiss Webster mice (Charles River) weighing 25-35 g were used throughout this study. They were housed in groups of five per cage in an AALAC-accredited facility that was maintained on a 12-h light dark cycle (lights on at 0600 h) and had free access to food and water. Experimental groups consisted of 12 mice, randomly assigned to treatment groups. All experiments were performed between 9:00 AM and noon in accordance to the Guide for the Care and Use of Laboratory Animals as adopted and promulgated by the National Institutes of Health (Pub. 85-23, 1985).
Solutions of Compound 1 and paroxetine were freshly prepared; each dissolved in distilled water. All drugs were injected i.p. at a volume of 10 ml/kg body weight. Combination treatments were cotreated, 30 minutes prior to the test.
The procedure followed in this study was a variant of the one originally described by Steru et al. (1985). 30 minutes following treatment, the mice were suspended upside down by the tail using adhesive laboratory tape (VWR International), to a flat metal bar connected to a strain gauge within a tail suspension chamber (Med Associates). The time spent immobile during a 6-minute test session was automatically recorded. 8 mice were simultaneously tested within separate chambers. Data collected were expressed as a mean of immobility time and statistical analysis was performed using a one-way ANOVA with least significant difference (LSD) post-hoc test.

Male Swiss Webster mice [2] = settings: general statement on clinically effective drugs; cited from earlier work

## Fc1ccc([C@@H]2CCNC[C@H]2COc2ccc3c(c2)OCO3)cc1 (relative stereo) [paroxetine, trans-(−)-3-[(1,3-benzodioxol-5-yloxy)methyl]-4-(4-fluorophenyl)piperidine, reference compound]
Male Swiss Webster mice [1]; 30 mg/kg paroxetine alone, i.p., 30 minutes prior to the test, ns
  decrease in immobility: 18%

## c1cc2c3c(c1)[C@H]1CCC[C@H]1N3CCNC2 [Compound 1]
Male Swiss Webster mice [1]; 1 mg/kg Compound 1 in combination with 30 mg/kg paroxetine, i.p.
  decrease in immobility time: 24%
Male Swiss Webster mice [1]; 3 mg/kg Compound 1 in combination with 30 mg/kg paroxetine, i.p.
  decrease in immobility time: 35%
Male Swiss Webster mice [1]; Compound 1 alone, 1 or 3 mg/kg i.p., 30 minutes prior to the test, 6-minute session
  antidepressant-like effect (immobility time) in tail suspension test: Neither dose of Compound 1 (1 or 3 mg/kg) produced an antidepressant-like effect alone

## CNCCC(Oc1ccc(C(F)(F)F)cc1)c1ccccc1 (centres unmarked) [fluoxetine, N-methyl-3-(p-trifluoromethylphenoxy)-3-phenylpropylamine]
Male Swiss Webster mice [2]
  effectiveness in tail suspension assay (decrease of time spent immobile): effective in this assay
